Measurements taken from ChEMBL document CHEMBL1134089, “Arylsulphonyl hydroxamic acids: potent and selective matrix metalloproteinase inhibitors” (Bioorg Med Chem Lett, 2001).

Key:
[1] = target: Matrix metalloproteinase-9 (Homo sapiens, UniProt P14780); assay: Inhibition of Matrix metalloprotease-9
[2] = target: 72 kDa type IV collagenase (Homo sapiens, UniProt P08253); assay: Inhibition of Matrix metalloprotease-2
Interstitial collagenase = target: T1, Interstitial collagenase (Homo sapiens, UniProt P03956); assay: Inhibition of Matrix metalloprotease-1
T1 sequence (P03956 whole entry): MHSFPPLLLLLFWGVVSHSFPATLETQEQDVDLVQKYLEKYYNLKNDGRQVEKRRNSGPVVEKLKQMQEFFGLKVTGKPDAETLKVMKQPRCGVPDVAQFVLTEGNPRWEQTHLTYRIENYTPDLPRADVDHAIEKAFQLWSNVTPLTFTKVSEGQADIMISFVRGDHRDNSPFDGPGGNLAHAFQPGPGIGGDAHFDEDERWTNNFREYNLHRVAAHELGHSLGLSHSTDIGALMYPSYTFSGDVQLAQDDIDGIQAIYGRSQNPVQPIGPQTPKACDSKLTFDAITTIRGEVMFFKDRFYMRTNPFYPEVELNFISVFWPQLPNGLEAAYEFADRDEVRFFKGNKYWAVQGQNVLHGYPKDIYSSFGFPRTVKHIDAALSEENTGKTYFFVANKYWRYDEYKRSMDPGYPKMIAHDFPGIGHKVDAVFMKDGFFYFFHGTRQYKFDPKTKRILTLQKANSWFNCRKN

Stromelysin-1 = Stromelysin-1 (Homo sapiens, UniProt P08254); assay: Inhibition of Matrix metalloprotease-3
Neutrophil collagenase = Neutrophil collagenase (Homo sapiens, UniProt P22894); assay: Inhibition of Matrix metalloprotease-8
[3] = Inhibitory concentration required against shedding of TNF RII from stimulated PBMCs; assay type: functional
[4] = Inhibitory concentration required against shedding of IL-1 RII from stimulated PBMCs; assay type: functional
[5] = (§1) Inhibitory concentration required against shedding of L-Selectin from stimulated PBMCs; assay type: functional, Homo sapiens
Rattus norvegicus [6] = assay: Percent inhibition against adjuvant arthritis in rats tested in vivo at 10 mg/kg; assay type: functional
[7] = Inhibitory concentration required against shedding of IL6-R from stimulated PBMCs; assay type: functional
Mus musculus = assay: Percent inhibition against B16-F10 mouse melanoma tested in vivo at 30 mg/kg; assay type: functional
[8] = Inhibitory concentration required against shedding of TNF-alpha from stimulated PBMCs; assay type: functional
Rattus norvegicus [9] = assay: Plasma level evaluated in the rat after oral dosing of 10 mg/kg; assay type: ADME, organism-based; design: dose 10 mg/kg, route oral; conditions: in vivo
Rattus norvegicus [10] = assay: Percent inhibition against adjuvant arthritis in rats tested in vivo at 3 mg/kg; assay type: functional
[11] = as §1; assay type: functional

Stromelysin-1, sequence (P08254 whole entry): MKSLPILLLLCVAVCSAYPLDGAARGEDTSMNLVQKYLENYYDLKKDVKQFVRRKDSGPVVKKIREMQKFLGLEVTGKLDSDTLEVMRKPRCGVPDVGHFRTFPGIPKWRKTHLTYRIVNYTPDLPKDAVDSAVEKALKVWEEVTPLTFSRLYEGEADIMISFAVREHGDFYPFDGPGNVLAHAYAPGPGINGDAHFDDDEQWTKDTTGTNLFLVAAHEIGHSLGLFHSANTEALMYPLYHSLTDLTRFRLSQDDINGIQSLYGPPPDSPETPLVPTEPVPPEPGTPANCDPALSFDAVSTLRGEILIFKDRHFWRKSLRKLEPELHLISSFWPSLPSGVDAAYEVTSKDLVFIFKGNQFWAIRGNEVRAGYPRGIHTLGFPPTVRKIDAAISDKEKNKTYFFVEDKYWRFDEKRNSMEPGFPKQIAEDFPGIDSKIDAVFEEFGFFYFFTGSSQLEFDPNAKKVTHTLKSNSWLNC
Neutrophil collagenase, sequence (P22894 whole entry): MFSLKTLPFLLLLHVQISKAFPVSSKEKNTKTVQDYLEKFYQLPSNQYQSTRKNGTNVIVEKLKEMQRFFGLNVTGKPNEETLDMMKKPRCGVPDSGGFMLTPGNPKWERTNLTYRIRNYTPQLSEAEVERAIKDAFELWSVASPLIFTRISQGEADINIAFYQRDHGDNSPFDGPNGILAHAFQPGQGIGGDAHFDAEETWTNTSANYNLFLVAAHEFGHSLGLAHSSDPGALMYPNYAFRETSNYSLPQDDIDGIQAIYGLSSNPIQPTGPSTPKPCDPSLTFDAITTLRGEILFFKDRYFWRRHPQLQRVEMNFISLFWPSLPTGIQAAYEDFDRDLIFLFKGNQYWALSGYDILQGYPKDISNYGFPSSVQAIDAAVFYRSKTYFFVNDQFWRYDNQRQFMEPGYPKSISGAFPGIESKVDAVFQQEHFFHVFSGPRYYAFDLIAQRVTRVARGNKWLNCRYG
Matrix metalloproteinase-9, sequence (P14780 whole entry): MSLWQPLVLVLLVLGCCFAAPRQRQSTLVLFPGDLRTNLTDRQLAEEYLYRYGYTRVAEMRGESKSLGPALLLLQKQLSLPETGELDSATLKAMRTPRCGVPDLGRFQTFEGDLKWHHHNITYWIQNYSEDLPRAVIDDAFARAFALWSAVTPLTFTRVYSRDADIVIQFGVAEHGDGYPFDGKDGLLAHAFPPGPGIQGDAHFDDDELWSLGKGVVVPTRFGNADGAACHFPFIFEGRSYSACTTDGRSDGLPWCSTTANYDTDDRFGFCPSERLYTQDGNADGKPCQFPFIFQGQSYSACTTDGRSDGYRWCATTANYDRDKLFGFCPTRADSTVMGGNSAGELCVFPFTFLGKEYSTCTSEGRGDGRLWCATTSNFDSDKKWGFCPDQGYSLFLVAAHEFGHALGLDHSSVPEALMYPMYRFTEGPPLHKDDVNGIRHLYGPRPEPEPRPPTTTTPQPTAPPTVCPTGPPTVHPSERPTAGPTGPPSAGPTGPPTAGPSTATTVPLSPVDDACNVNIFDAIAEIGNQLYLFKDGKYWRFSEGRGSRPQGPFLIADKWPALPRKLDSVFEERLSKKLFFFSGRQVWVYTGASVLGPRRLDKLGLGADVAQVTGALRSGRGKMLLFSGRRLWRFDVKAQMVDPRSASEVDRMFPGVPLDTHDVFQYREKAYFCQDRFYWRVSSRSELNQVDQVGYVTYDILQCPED
72 kDa type IV collagenase, sequence (P08253 whole entry): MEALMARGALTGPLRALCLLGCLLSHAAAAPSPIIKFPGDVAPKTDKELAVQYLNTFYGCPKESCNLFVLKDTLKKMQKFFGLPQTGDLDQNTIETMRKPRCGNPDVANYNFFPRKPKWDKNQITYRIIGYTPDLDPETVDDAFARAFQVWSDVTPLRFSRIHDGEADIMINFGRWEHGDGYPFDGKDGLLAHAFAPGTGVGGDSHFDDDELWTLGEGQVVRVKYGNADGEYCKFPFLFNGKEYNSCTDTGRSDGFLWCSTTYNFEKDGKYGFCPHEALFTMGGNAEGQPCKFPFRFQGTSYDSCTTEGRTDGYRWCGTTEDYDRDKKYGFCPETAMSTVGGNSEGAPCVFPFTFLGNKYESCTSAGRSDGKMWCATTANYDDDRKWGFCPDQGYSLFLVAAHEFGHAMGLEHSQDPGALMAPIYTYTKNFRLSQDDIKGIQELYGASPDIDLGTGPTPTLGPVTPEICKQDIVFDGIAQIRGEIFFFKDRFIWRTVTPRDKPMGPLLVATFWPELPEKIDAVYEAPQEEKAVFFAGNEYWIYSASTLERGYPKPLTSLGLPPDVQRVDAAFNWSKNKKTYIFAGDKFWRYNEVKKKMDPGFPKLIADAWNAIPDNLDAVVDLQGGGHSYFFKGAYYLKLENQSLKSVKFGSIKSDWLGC

Structure (SMILES) | IC50 [1] | IC50 [2] | IC50 (Interstitial collagenase) | IC50 (Stromelysin-1) | IC50 (Neutrophil collagenase) | IC50 ([3]; Homo sapiens) | IC50 ([4]; Homo sapiens) | IC50 [5] | IC50 ([7]; Homo sapiens) | IC50 ([8]; Homo sapiens) | Plasma level (Rattus norvegicus [9]) | IC50 [3] | IC50 [4] | IC50 [11] | IC50 [7] | IC50 [8] | inhibition in vivo at 10 mg/kg (Rattus norvegicus [6]) | inhibition in vivo at 30 mg/kg (Mus musculus) | inhibition in vivo at 3 mg/kg (Rattus norvegicus [10])
O=C(NO)C(CCCc1ccccc1)CS(=O)(=O)c1ccc(C(O)c2ccccc2)cc1 (centres undefined) | 2500 nM | 1700 nM | 25000 nM | 2500 nM | 3000 nM | – | – | – | – | – | – | – | – | – | – | – | – | – | –
O=C(NO)C(CCCc1ccccc1)CS(=O)(=O)c1ccc(Cc2ccccc2)cc1 (centres undefined) | 150 nM | 200 nM | > 30000 nM | > 2000 nM | 300 nM | – | – | – | – | – | – | – | – | – | – | – | – | – | –
CNC(=O)[C@@H](NC(=O)C(CC(C)C)C(O)C(=O)NO)C(C)(C)C (single isomer, unassigned) | – | – | – | – | – | – | – | – | – | – | – | 1000 nM | 10000 nM | 5000 nM | 10000 nM | 2000 nM | 50% | 40% | –

Further compounds by falling IC50 (Stromelysin-1), results first:

IC50 [1] | IC50 [2] | IC50 (Interstitial collagenase) | IC50 (Stromelysin-1) | IC50 (Neutrophil collagenase) | IC50 ([3]; Homo sapiens) | IC50 ([4]; Homo sapiens) | IC50 [5] | IC50 ([7]; Homo sapiens) | IC50 ([8]; Homo sapiens) | Plasma level (Rattus norvegicus [9]) | IC50 [3] | IC50 [4] | IC50 [11] | IC50 [7] | IC50 [8] | Structure (SMILES) | inhibition in vivo at 10 mg/kg (Rattus norvegicus [6]) | inhibition in vivo at 30 mg/kg (Mus musculus) | inhibition in vivo at 3 mg/kg (Rattus norvegicus [10])
400 nM | 800 nM | 20000 nM | 1200 nM | 300 nM | – | – | – | – | – | – | – | – | – | – | – | O=C(c1ccccc1)c1ccc(S(=O)(=O)CC(CCCc2ccccc2)C(=O)O)cc1 (centres undefined) | – | – | –
150 nM | 50 nM | 20000 nM | 350 nM | 80 nM | – | – | – | – | – | – | – | – | – | – | – | O=C(c1ccc(S(=O)(=O)CC(CCCc2ccccc2)C(=O)NO)cc1)c1cc[n+]([O-])cc1 (centres undefined) | – | – | –
– | – | – | 100 nM | 15 nM | > 100000 nM | > 100000 nM | > 100000 nM | > 100000 nM | > 100000 nM | – | – | – | – | – | – | O=C(c1ccccc1)c1ccc(S(=O)(=O)CC(CCCc2ccccc2)C(=O)NO)cc1 (centres undefined) | 40% | 40% | –
15 nM | 3 nM | 10000 nM | 100 nM | 3 nM | > 100000 nM | 37000 nM | > 100000 nM | > 100000 nM | > 100000 nM | 300 ng/mL | – | – | – | – | – | Cl.O=C(c1ccncc1)c1ccc(S(=O)(=O)CC(CCCc2ccccc2)C(=O)NO)cc1 (centres undefined) | – | 80% | 50%
